According to US11730720B2, “ALK5 inhibitors” (THERAVANCE BIOPHARMA R&D IP, LLC, priority 2018, dated 2023):

Assays:
[1] = target: T1, recombinant human ALK5 (TGF-βR1) protein (Homo sapiens, UniProt P36897); test: Biochemical ALK5 (TGF-βR1) assay to measure pKi (LANCE Ultra ULight kinase assay); conditions: apparent pKi, converted from pIC50 using the Cheng-Prusoff equation
T1 construct: purchased Life Technologies PR9075A
T1 sequence (P36897 34-503): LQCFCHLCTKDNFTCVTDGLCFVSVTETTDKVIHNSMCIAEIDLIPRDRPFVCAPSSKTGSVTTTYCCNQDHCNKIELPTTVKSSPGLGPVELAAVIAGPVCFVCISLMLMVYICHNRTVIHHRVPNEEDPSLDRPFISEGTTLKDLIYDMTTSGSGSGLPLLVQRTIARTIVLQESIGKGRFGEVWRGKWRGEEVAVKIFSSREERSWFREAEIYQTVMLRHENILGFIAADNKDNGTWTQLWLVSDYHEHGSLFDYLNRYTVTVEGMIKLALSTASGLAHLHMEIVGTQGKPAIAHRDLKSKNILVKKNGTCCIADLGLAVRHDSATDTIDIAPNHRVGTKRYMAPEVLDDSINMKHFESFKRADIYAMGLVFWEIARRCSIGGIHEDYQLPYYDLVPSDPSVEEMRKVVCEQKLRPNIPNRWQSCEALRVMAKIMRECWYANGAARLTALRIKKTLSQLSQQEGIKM
Procedure, shortened: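 TR-FRET kinase format: compound dose range 10 μM–25 pM equilibrated 60 min with human ALK5 and ULight-labelled topoisomerase 2α peptide in HEPES/MgCl2 buffer pH 7.5 with DTT. Reaction started with ATP (125 μM stock, 5× final), 60 min at 37° C, stopped with EDTA/Eu-anti-phospho antibody; pKi derived from pIC50 via Cheng-Prusoff.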

[2] = test system: TGF-β-stimulated SMAD3 phosphorylation in BEAS-2B cells; test: Cellular ALK5 potency assay, inhibition of TGF-β stimulated pSMAD3 formation in BEAS-2B cells; format: cell-based; conditions: Homo sapiens, inhibition of TGF-β (10 ng/mL) stimulated pSMAD3 formation, 1 hour compound incubation, read-out: BEAS2B pIC50 (converted)
Procedure, shortened: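 Phospho-SMAD3 was quantified by AlphaLISA in lysates of human lung epithelial BEAS-2B cells. Compound was added 1 h (37 °C, HEPES/BSA-supplemented HBSS) before a 30 min challenge with 10 ng/mL TGF-β. Values are pIC50 relative to stimulated cells without compound.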

| Structure (SMILES) | Ki [1] [nM] | IC50 [2] [nM] |
| --- | --- | --- |
| CN1CC(Nc2cnc3ccc(-c4c[nH]nc4-c4cc(Cl)ccc4F)nc3c2)C1 [Compound 1-7, 6-[3-(5-chloro-2-fluoro-phenyl)-1H-pyrazol-4-yl]-N-(1-methylazetidin-3-yl)-1,5-naphthyridin-3-amine] | 0.0398 to 0.316 | ≤ 20 |
| COC(=O)[C@H]1CN(c2cnc3ccc(-c4c[nH]nc4-c4cc(Cl)ccc4F)nc3c2)CCN1CCN [Compound 1-134, methyl (2R)-1-(2-aminoethyl)-4-[6-[3-(5-chloro-2-fluoro-phenyl)-1H-pyrazol-4-yl]-1,5-naphthyridin-3-yl]piperazine-2-carboxylate] | 0.398 to 3.16 | 25.1 to 158 |
| Fc1ccc(Cl)cc1-c1n[nH]cc1-c1ccc2ncc(N3CCn4nc(N5CCNCC5)cc4C3)cc2n1 [Compound 1-128, 2-[3-(5-chloro-2-fluoro-phenyl)-1H-pyrazol-4-yl]-7-(2-piperazin-1-yl-6,7-dihydro-4H-pyrazolo[1,5-a]pyrazin-5-yl)-1,5-naphthyridine] | 0.0398 to 0.316 | 200 to 1260 |
| COCC1CN(c2cnc3ccc(-c4c[nH]nc4-c4cc(Cl)ccc4F)nc3c2)CCN1C (racemic) [Compound 1-80, 2-[3-(5-chloro-2-fluoro-phenyl)-1H-pyrazol-4-yl]-7-[rac-(3R)-3-(methoxymethyl)-4-methyl-piperazin-1-yl]-1,5-naphthyridine] | 0.398 to 3.16 | 25.1 to 158 |
| CC(C)N1CCN(C(C)(C)CNc2cnc3ccc(-c4c[nH]nc4-c4cc(Cl)ccc4F)nc3c2)CC1 [Compound 1-5, 6-[3-(5-chloro-2-fluoro-phenyl)-1H-pyrazol-4-yl]-N-[2-(4-isopropylpiperazin-1-yl)-2-methyl-propyl]-1,5-naphthyridin-3-amine] | 3.98 to 31.6 | 25.1 to 158 |
| NCCN1CCN(c2cnc3ccc(-c4c[nH]nc4-c4cc(Cl)ccc4F)nc3c2)CC1 [Compound 1-57, 2-[4-[6-[3-(5-chloro-2-fluoro-phenyl)-1H-pyrazol-4-yl]-1,5-naphthyridin-3-yl]piperazin-1-yl]ethanamine] | 0.0398 to 0.316 | 25.1 to 158 |
| CN1CC2CN(c3cnc4ccc(-c5c[nH]nc5-c5cc(Cl)ccc5F)nc4c3)C2C1 (stereo not shown) [Compound 1-72, 2-[3-(5-chloro-2-fluoro-phenyl)-1H-pyrazol-4-yl]-7-(3-methyl-3,6-diazabicyclo[3.2.0]heptan-6-yl)-1,5-naphthyridine] | 0.398 to 3.16 | 25.1 to 158 |
| CC(C)N1CC2CN(c3cnc4ccc(-c5c[nH]nc5-c5cc(Cl)ccc5F)nc4c3)C2C1 (stereo not shown) [Compound 1-73, 2-[3-(5-chloro-2-fluoro-phenyl)-1H-pyrazol-4-yl]-7-(3-isopropyl-3,6-diazabicyclo[3.2.0]heptan-6-yl)-1,5-naphthyridine] | 3.98 to 31.6 | 25.1 to 158 |
| NC1CCN(c2cnc3ccc(-c4c[nH]nc4-c4cc(Cl)ccc4F)nc3c2)C1 (stereo not shown) [Compound 1-55, 1-[6-[3-(5-chloro-2-fluoro-phenyl)-1H-pyrazol-4-yl]-1,5-naphthyridin-3-yl]pyrrolidin-3-amine] | ≤ 0.0316 | ≤ 20 |
| O=C(O)CC1CNCCN1CCNc1cnc2ccc(-c3nc[nH]c3-c3cc(Cl)ccc3F)nc2c1 (stereo not shown) [Compound 2-34, 2-[1-[2-[[6-[5-(5-chloro-2-fluoro-phenyl)-1H-imidazol-4-yl]-1,5-naphthyridin-3-yl]amino]ethyl]piperazin-2-yl]acetic acid] | 0.0398 to 0.316 | 200 to 1260 |
| Fc1ccc(Cl)cc1-c1n[nH]cc1-c1ccc2ncc(-c3cnn(CCNCc4ccccc4)c3)cc2n1 [Compound 1-95, N-benzyl-2-[4-[6-[3-(5-chloro-2-fluoro-phenyl)-1H-pyrazol-4-yl]-1,5-naphthyridin-3-yl]pyrazol-1-yl]ethanamine] | 0.0398 to 0.316 | 25.1 to 158 |
| CN1CCN(C2CCN(c3cnc4ccc(-c5nc[nH]c5-c5cc(Cl)ccc5F)nc4c3)CC2)CC1 [Compound 2-10, 2-[5-(5-chloro-2-fluoro-phenyl)-1H-imidazol-4-yl]-7-[4-(4-methylpiperazin-1-yl)-1-piperidyl]-1,5-naphthyridine] | 0.0398 to 0.316 | 25.1 to 158 |
| CC(C)N1CCN(CCNc2cnc3ccc(-c4nc[nH]c4-c4cc(Cl)ccc4F)nc3c2)CC1 [Compound 2-2, 6-[5-(5-chloro-2-fluoro-phenyl)-1H-imidazol-4-yl]-N-[2-(4-isopropylpiperazin-1-yl)ethyl]-1,5-naphthyridin-3-amine] | 0.0398 to 0.316 | 25.1 to 158 |
| CN1CCN(c2ccc(Nc3cnc4ccc(-c5c[nH]nc5-c5cc(Cl)ccc5F)nc4c3)nc2)CC1 [Compound 1-29, 6-(3-(5-chloro-2-fluorophenyl)-1H-pyrazol-4-yl)-N-(5-(4-methylpiperazin-1-yl)pyridin-2-yl)-1,5-naphthyridin-3-amine] | 0.0398 to 0.316 | 25.1 to 158 |

The next lines start with results.

| Ki [1] [nM] | Structure (SMILES) | IC50 [2] [nM] |
| --- | --- | --- |
| 0.398 to 3.16 | COCc1cccc(-c2n[nH]cc2-c2ccc3ncc(N4CCC(N)C4)cc3n2)c1 (stereo not shown) [Compound 14-6, 1-[6-[3-[3-(methoxymethyl)phenyl]-1H-pyrazol-4-yl]-1,5-naphthyridin-3-yl]pyrrolidin-3-amine] | 25.1 to 158 |
| 0.0398 to 0.316 | Fc1cc(F)c(-c2n[nH]cc2-c2ccc3ncc(NCCN4CCNCC4)cc3n2)cc1Cl [Compound 6-9, 6-[3-(5-chloro-2,4-difluoro-phenyl)-1H-pyrazol-4-yl]-N-(2-piperazin-1-ylethyl)-1,5-naphthyridin-3-amine] | 25.1 to 158 |
| 3.98 to 31.6 | CNC1CCN(c2cnc3ccc(-c4c(-c5cc(Cl)ccc5F)[nH]c5cccnc45)nc3c2)CC1 [Compound 25-1, 1-[6-[2-(5-chloro-2-fluoro-phenyl)-1H-pyrrolo[3,2-b]pyridin-3-yl]-1,5-naphthyridin-3-yl]-N-methyl-piperidin-4-amine] | 200 to 1260 |
| 0.0398 to 0.316 | CNC(=O)C1CN(c2cnc3ccc(-c4c[nH]nc4-c4cc(Cl)c(F)cc4F)nc3c2)CCN1 (racemic) [Compound 6-25, rac-(2R)-4-[6-[3-(5-chloro-2,4-difluoro-phenyl)-1H-pyrazol-4-yl]-1,5-naphthyridin-3-yl]-N-methyl-piperazine-2-carboxamide] | 25.1 to 158 |
| ≤ 0.0316 | CNCCn1ccc(-c2cnc3ccc(-c4c[nH]nc4-c4cc(Cl)c(F)cc4F)nc3c2)n1 [Compound 6-40, 2-(3-(6-(3-(5-chloro-2,4-difluorophenyl)-1H-pyrazol-4-yl)-1,5-naphthyridin-3-yl)-1H-pyrazol-1-yl)-N-methylethan-1-amine] | ≤ 20 |
| 0.0398 to 0.316 | NC1CC=C(c2cnc3ccc(-c4c[nH]nc4-c4ccc(F)c(F)c4)nc3c2)CC1 (stereo not shown) [Compound 8-19, 4-[6-[3-(3,4-difluorophenyl)-1H-pyrazol-4-yl]-1,5-naphthyridin-3-yl]cyclohex-3-en-1-amine] | ≤ 20 |
| 0.0398 to 0.316 | Fc1cc(F)c(-c2n[nH]cc2-c2ccc3ncc(-c4cc5n(n4)CCNC5)cc3n2)cc1Cl [Compound 6-56, 2-[3-(5-chloro-2,4-difluoro-phenyl)-1H-pyrazol-4-yl]-7-(4,5,6,7-tetrahydropyrazolo[1,5-a]pyrazin-2-yl)-1,5-naphthyridine] | 25.1 to 158 |
| 0.0398 to 0.316 | Fc1cc(F)c(-c2n[nH]cc2-c2ccc3ncc(-c4nc5n(n4)CCNC5)cc3n2)cc1Cl [Compound 6-46, 2-[3-(5-chloro-2,4-difluoro-phenyl)-1H-pyrazol-4-yl]-7-(5,6,7,8-tetrahydro-[1,2,4]triazolo[1,5-a]pyrazin-2-yl)-1,5-naphthyridine] | 25.1 to 158 |
| 0.398 to 3.16 | CNCCn1cc(-c2cnc3ccc(-c4c[nH]nc4-c4cc(O)ccc4C)nc3c2)cn1 [Compound 13-1, 4-methyl-3-(4-(7-(1-(2-(methylamino)ethyl)-1H-pyrazol-4-yl)-1,5-naphthyridin-2-yl)-1H-pyrazol-3-yl)phenol] | 200 to 1260 |
| 0.398 to 3.16 | Fc1cc(F)c(-c2n[nH]cc2-c2ccc3ncc(NCC4CCCNC4)cc3n2)cc1Cl (stereo not shown) [Compound 6-66, 6-[3-(5-chloro-2,4-difluoro-phenyl)-1H-pyrazol-4-yl]-N-(3-piperidylmethyl)-1,5-naphthyridin-3-amine] | 200 to 1260 |
| 0.398 to 3.16 | CN(CCN1CCNCC1)c1cnc2ccc(-c3c[nH]nc3-c3cc(Cl)c(F)cc3F)nc2c1 [Compound 6-24, 6-[3-(5-chloro-2,4-difluoro-phenyl)-1H-pyrazol-4-yl]-N-methyl-N-(2-piperazin-1-ylethyl)-1,5-naphthyridin-3-amine] | 25.1 to 158 |
| 0.0398 to 0.316 | CC(C)NCCN1CCN(c2cnc3ccc(-c4c[nH]nc4-c4cc(Cl)c(F)cc4F)nc3c2)CC1 [Compound 6-39, N-[2-[4-[6-[3-(5-chloro-2,4-difluoro-phenyl)-1H-pyrazol-4-yl]-1,5-naphthyridin-3-yl]piperazin-1-yl]ethyl]propan-2-amine] | 25.1 to 158 |
